Data as given in a melting point compilation (Tetko et al.; mined from patent text by program, amines drawn as free bases though some values may be those of a salt).

| melting point | Compound |
| --- | --- |
| 182 to 184 °C | COC1=CC(=O)c2c(c(CO)cn2C)C1=O |
| 92 to 94 °C | CCC(=O)Oc1ccc2c(c1)C(=O)N(C(=O)CC)C(C(Cl)(Cl)Cl)O2 (configuration not stated) |
| 194 °C | Cc1c(-c2ncc([N+](=O)[O-])n2C)cnn1-c1ccccc1 |
| 140 to 142 °C | Cc1nc(N2CCN(Cc3ccccc3)C2=N)sc1C(=O)NCc1ccc(F)c(F)c1 |
| 63 to 65 °C | O=C1CCC(c2cc(F)c(Br)cc2F)C1 (configuration not stated) |
| 172 °C | ON=C1c2sccc2-n2cccc21 |
| 186 °C | C#CCN(c1ccc(C(=O)NC(CCCCCC(=O)O)C(=O)O)cc1)C1CCc2cc3nc(C)[nH]c(=O)c3cc21 (configuration not stated) |
| 171 to 175 °C | O=C(O)c1ccc(NC(=O)c2ccc(Cl)cc2Cl)cc1Cl |
| 88 to 90 °C | CCCC(=O)c1cc(O)c(O)c([N+](=O)[O-])c1 |
| 143 to 145 °C | CC(C)(C)OC(=O)NC(Cc1ccc(O)cc1)C(=O)N1CCc2c(sc(N)c2C(=O)c2ccccc2)C1 (configuration not stated) |
| 86 to 88 °C | CCOC(=O)C(C)OCc1cc2nc(Cl)ccc2n1S(=O)(=O)c1ccc2nc(N)sc2c1 (configuration not stated) |
| 166 to 167 °C | CCCN1C=CSC1S(=O)(=O)N=NC(=O)Nc1nc(OC)cc(OC)n1 (configuration not stated) |
| 161 to 162 °C | O=C(Nc1ccc(CCc2nnn[nH]2)cc1)C(F)(F)C(F)(F)C(F)(F)F |
| 104 to 106 °C | CN1c2ccccc2CN(C(=O)c2ccc(C3CCCCC3)cc2)c2ccccc21 |
| 159 to 163 °C | COc1ccc2c(c1)C(=O)N(c1ccc3c(c1)NCCN3)C2 |
| 197 to 198 °C | COc1cccc(C2=C(C(=O)c3ccc(O)cc3)c3ccc(OC)cc3CC2)c1 |
| 144 to 146 °C | CCCCOc1ccc(C(=O)NCCC(=O)O)cc1 |
| 160 to 162 °C | CC(=Cc1ccc(-c2noc3cc(Cl)ccc23)cc1)[N+](=O)[O-] |
| 130 to 140 °C | O=C(O)c1cc(N2CCCCC2)ccc1[N+](=O)[O-] |
| 238 to 239 °C | O=C1Cc2cc(C(=O)CCl)c(Br)cc2N1 |
| 61 to 62 °C | O=C(Cc1ccccn1)Nc1ccc(CCCc2ccccc2OCc2ccccc2)cc1 |
| 220 to 222 °C | COc1cccc2c1CCC1=C2CC(=O)N1 |
| 98.5 to 100 °C | FC(F)(F)c1c(Cl)c(Cl)c(C=S)c(Cl)c1Cl |

| melting point | Compound |
| --- | --- |
| 154 to 156 °C | CNC(=O)c1ccccc1C(O)(c1ccc(Cl)cc1)c1ccccc1CN(C)C (configuration not stated) |
| 203 to 205 °C | CSc1ccc(N=Cc2ccc(Cl)cc2)cc1 |
| 183 to 185 °C | COc1ccc(C2CCN(c3c(C)c(C)c4c(c3C)[C@@H](c3ccc(C)cc3)C(C)(C)O4)CC2)cc1 |
| 199 to 200 °C | COc1ccc(-c2ccc(NC(=O)C=Cc3ccc(CN4CCCC4)cc3)cc2)cc1 |
| 162 to 164 °C | COCCNC(=O)c1ccc(-c2ccc3nnn(Cc4ccc5ncccc5c4)c3n2)cc1F |
| 145 to 148 °C | O=c1[nH]c2ccccc2n1Cc1ccc(OC(F)(F)F)cc1 |
| 134 to 136 °C | Cc1c[nH]c(C)c1CCC(=O)O |
| 148 to 151 °C | CC(O)C(C)(C)NC(N)=S (configuration not stated) |
| 153 to 156 °C | O=C(c1ccccc1)c1cccc2c1SCC2C(=O)O (configuration not stated) |
| 108 to 110 °C | OCC(O)COC(c1ccccc1)(c1ccccc1)c1ccccc1 (configuration not stated) |
| 169 to 171 °C | CC1CCC(n2ncc(-c3ccc(S(C)(=O)=O)cc3)c(-c3ccc(F)cc3)c2=O)C1 (configuration not stated) |
| 154 to 155 °C | COC(=O)C[C@H](O)C[C@H](O)C=Cc1c(-c2ccc(F)cc2)c(-c2ccccc2)c(C(=O)Nc2ccccc2)n1C(C)C |
| 143 to 144 °C | Cc1ccc(-c2c(NS(=O)(=O)c3ccc(C(C)(C)C)cc3)nc(C(C)C)nc2OCCO)cc1 |
| > 260 °C | O=C(NCCc1c2n(c3ccc(O)nc13)CCCc1ccccc1-2)c1ccco1 |
| 195 to 197 °C | Cc1nc(N(C)C)n2ncc(-c3ccncc3)c2n1 |
| 197 to 200 °C | CCOC(=O)CCn1cnc2c(=O)[nH]cnc21 |
| 153 to 156 °C | C[C@@H](O)c1nccc(N2CCN(c3nc4cccnc4o3)CC2)n1 |
| 75 to 77 °C | O=C1O[C@H](C(Cl)(Cl)Cl)N2CCC[C@@]12Cc1ccccc1 |
| 137 to 138 °C | Cc1cccc(N2C(=O)CC(Cl)C2=O)c1 (configuration not stated) |
| 205 °C | NCCNC(=S)Nc1c(Cl)cc([N+](=O)[O-])cc1Cl |
| 125 to 126 °C | CC(C)n1nc(-c2c(-c3ccccc3)nn3ccc(OCCCN(C)C)cc23)ccc1=O |
| 272 to 274 °C | Nc1ccc2c(c1)ncn2-c1ccccc1 |
| 124 to 125 °C | O=C(NC1(C(=O)O)CC1)OCCOC(=O)C1CCCCC1 |

| melting point | Compound |
| --- | --- |
| 138 to 140 °C | CC(c1ccsc1)N(O)C(N)=O (configuration not stated) |
| 162 to 163 °C | Cc1ccc2c(c1)C(C(=O)Nc1c(C)cccc1C)c1ccccc1CO2 (configuration not stated) |
| 131 to 132 °C | COc1cc(N)c(Cl)cc1C(=O)NCC1CCN(CCCCCOCc2ccc(Cl)cc2)CC1 |
| 58 to 59 °C | CCCCCC(=O)C=Cc1ccc(CCCCCCCC(=O)O)o1 |
| 63 to 65 °C | Cc1cc(C(C)C)cc(C)c1CCl |
| 257 °C | Cc1ccc(S(=O)(=O)CC(=O)NN=C2C(=O)Nc3ccc(I)cc32)cc1 |
| 157 to 158 °C | COCCOc1ccc(/C=C/C(=O)O)c(Oc2ncc(Br)cc2C)c1 |
| 137 to 138 °C | Nc1nc(=O)n(C2OC(CO)CC2O)cc1F (configuration not stated) |
| 244 to 248 °C | NC(=O)N1C(=O)C(=C(OC(=O)c2cccc(C(=O)O)c2)c2cccs2)c2cc(F)c(Cl)cc21 |
| 117 to 120 °C | CC(C)(CCl)C(=O)N(Cc1ccccc1Cl)OC(=O)c1ccccc1 |
| 195 to 200 °C | O=C1NC(=S)SC1=Cc1ccc(Oc2ccccc2)cc1 |
| 53 to 55 °C | CC(C)(C)c1ccc(CNc2nc(Nc3cccc(C(F)(F)F)c3)nc(C(F)(F)F)n2)cc1 |
| 187 to 188 °C | CCS(=O)c1ccc(-c2coc3ccc(-c4nnc(C)o4)cc23)cc1F (configuration not stated) |
| 161 to 163 °C | CC(=O)NC[C@H]1CN(c2ccc(C3=CCCCO3)c(F)c2)C(=O)O1 |
| 102 to 103 °C | CN(c1ccnc(Cl)n1)n1cccc1 |
| 249 to 251 °C | CC1(C)Cc2c(c(N3CCCC3)nc3sc4c(NCc5ccccn5)ncnc4c23)CO1 |
| 105 to 108 °C | Cc1nnc(OCC(F)(F)F)c(-c2c(F)cc(F)cc2F)c1-c1ccc(Cl)cc1 |
| 47 to 48 °C | Cc1ncc(C(=O)NCCOCCO[N+](=O)[O-])s1 |
| 143 to 147 °C | O=C(NCC(C(O)c1ccc([N+](=O)[O-])cc1)N1CCC(Cc2ccccc2)CC1)c1ccccc1 (configuration not stated) |
| 159 to 161 °C | COc1ccc(N2CCN(c3c(C)c(C)c4c(c3C)C(c3cccnc3)C(C)(C)O4)CC2)cc1 (configuration not stated) |
| 120 °C | COC(=O)c1cc(N)c(N(C)C(C)=O)c(N)c1 |

| Compound | melting point |
| --- | --- |
| CC1CC2=CC(=O)CCC2C2C(F)CC3(C)C(O)CCC3C12 (configuration not stated) | 127 °C |
| CN(C)C1(c2ccccc2)CCC(C(=O)c2cc3ccccc3n2C)(N2CCCC2)CC1 (configuration not stated) | 212 to 218 °C |
| N#Cc1ccc(N2C(=O)N(CCCCO)C3(CCCCC3)C2=O)cc1C(F)(F)F | 145 °C |
| CC(C)C(=O)NC1CCc2c(c3cc(-c4ccccn4)ccc3n2Cc2cccc(F)c2)C1 (configuration not stated) | 228 to 230 °C |
| C=CC(C)(C)CC(NC(=O)c1ccc(Cl)cc1)NC(=N[N+](=O)[O-])Nc1cccnc1 (configuration not stated) | 186 °C |
